The test system of one series is primary rat hepatocytes. Nature of the series: Hepatic metabolism in primary hepatocytes. The conditions noted are these: 3 h.
Series [1] in a line: Liver distribution in Wistar rats. The conditions noted are these: liver; for increase in Cmax on co-administration vs single treatment / exposure (AUC) of metabolite as share of the exposure of BBR / AUC ± SE / Cmax / Tmax / increase in AUC on co-administration vs single treatment: Wistar rats; for AUC ± SE / Cmax / half-life / Tmax: n = 5; for Cmax / half-life / Tmax: male, Wistar, rat, po; for Cmax: Cmax ± SE; for half-life: T1/2, Wistar rats.

The test system of series [2] is GK rats. The experiment in a line: Oral glucose tolerance test (OGTT) in GK rats on day 28. The format is in vivo, rat. The conditions noted are these: after 4 weeks of treatment, glucose 2 g/kg oral. How it is done:
(§1) Four-week-old male GK rats were fed a high-fat diet, and age-matched non-diabetic Wistar rats were fed standard chow as the control group. Under these dietary conditions, blood glucose was estimated each week for 7 weeks in 12-h fasted rats using a portable glucometer (One Touch Sure Step Meter, Johnson & Johnson, United States) by drawing the blood from the tail vein. GK rats with fasting blood glucose levels (FBG) above 16.7 mM were considered as diabetic rats, and only uniformly diabetic rats were used in this study. […] All the drugs were suspended in 0.5% carboxymethylcellulose sodium (CMC-Na) solution for oral gavage (10 ml/kg) once per day (at 9:00) for 6 weeks. Simultaneously, the Wistar and vehicle groups received vehicle over the treatment period. Food consumption and body weight were measured every week throughout the experimental periods. Non-fasting blood glucose (NFBG) levels were determined by collecting blood samples from the tail vein (at 9:00), and FBG levels were determined after a 6-h fast (at 15:00) on days 0, 7, 14, 21, and 42. On day 28, an oral glucose tolerance test (OGTT) was performed after an overnight fast. […] On day 42, the rats were anesthetized with urethane (1.4 g/kg, dissolved in saline) after an overnight fast and were sacrificed to collect the liver, kidney, heart, and spleen. The organs were weighed after washing with saline and drying to calculate the organ coefficient, namely, the ratio between the weight of organs and the body in each rat.

Series [3] can be described thus: Body weight, food intake, organ coefficients and side effects in GK rats. It counts as in vivo, rat. The conditions noted are these: day 42. How it is done: as §1
Series [4] relates to GK rats. The experiment in a line: NFBG and FBG levels in GK rats, 6-week oral treatment. It counts as in vivo, rat. The conditions noted are these: during 6-week treatment, TB-2 33.3, BBR 66.7, TB-2+BBR 100, metformin 200 mg/kg/day. How it is done:
as §1

[5] abbreviates: single oral BBR 66.7 mg/kg alone.
Setting [6] is: single oral BBR+TB-2 (66.7+33.3 mg/kg).
Where [7] appears, read: single treatment (On TB-2 treatments).
Where [8] appears, read: 33.3 mg/kg, single oral BBR+TB-2 (66.7+33.3 mg/kg).
Setting [9] is: 66.7 mg/kg, single oral BBR 66.7 mg/kg alone.

Take `Nn1nnc2ccccc21` [ABT, 1-aminobenzotriazole]: the “effect on BBR metabolism and the generation of M2–M5” value with primary rat hepatocytes (BBR 1 μM, ABT 1 mM, TB-2 0.1 to 30 μM) is “completely abrogated”.

With `COc1c(O)ccc2cc3[n+](cc12)CCc1cc2c(cc1-3)OCO2` [M2, Thalifendine], the “increase in Cmax on co-administration vs single treatment” value (shortened to “increase in Cmax on co-administration”) in series [1] is on record as 117%. For the same compound, the “exposure (AUC) of metabolite as share of the exposure of BBR” value (shortened to “exposure (AUC) of metabolite”) worked out at 144% in series [1] (TB-2+BBR treatments) and 182% in series [1] (setting [7]). The “AUC ± SE” value was determined as 5935.8 ± 164.9 h ∗ ng/g in series [1] (setting [5]) and 6651.2 ± 469.0 h ∗ ng/g in series [1] (setting [6]). Besides, the figures for the Cmax in series [1] (setting [8]) and in series [1] (setting [9]) were 1660 ± 255 ng/g and 766 ± 54.3 ng/g, respectively. Moreover, the half-life in series [1] (setting [8]) is 5 h; in series [1] (setting [9]), 6.8 h. Moreover, the Tmax came out at 2 h in series [1] (setting [8]) and 4 h in series [1] (setting [9]).

Consider `COc1ccc2cc3[n+](cc2c1OC)CCc1cc(O)c(O)cc1-3` [M3, demethyleneberberine], for which, in series [1], the “increase in AUC on co-administration vs single treatment” value (“increase in AUC on co-administration” below) came to 144%. The “increase in Cmax on co-administration” value in series [1] is on record as 174%. For the same compound, the “exposure (AUC) of metabolite” value in series [1] (TB-2+BBR treatments) was 12%; in series [1] (setting [7]), 7%. Further, the figures for the “AUC ± SE” value in series [1] (setting [5]) and in series [1] (setting [6]) were 234.5 ± 29.3 h ∗ ng/g and 572.9 ± 34.7^∗∗∗ h ∗ ng/g, respectively. In addition, the Cmax was determined as 106 ± 18.2 ng/g in series [1] (setting [8]) and 38.8 ± 5.6 ng/g in series [1] (setting [9]). For the same compound, the half-life in series [1] (setting [8]) is 6.2 h; in series [1] (setting [9]), 18.5 h. Moreover, the Tmax in series [1] (setting [8]) and in series [1] (setting [9]) was 2 h throughout.

`COc1cc2c(cc1O)CC[n+]1cc3c(OC)c(OC)ccc3cc1-2` [M4, jatrorrhizine]: in series [1], the “increase in AUC on co-administration” value is given as 31% and the “increase in Cmax on co-administration” value worked out at 156%. Also, the “exposure (AUC) of metabolite” value in series [1] (TB-2+BBR treatments) stood at 15%. The “AUC ± SE” value in series [1] (setting [5]) is 527.5 ± 25.0 h ∗ ng/g. In addition, the “AUC ± SE” value in series [1] (setting [6]) was 690.8 ± 59.6^∗ h ∗ ng/g. The “exposure (AUC) of metabolite” value in series [1] (setting [7]) is listed as 16%. In series [1] (setting [8]), the highest level (Cmax) was 200 ± 33.7 ng/g, the half-life was 7 h and the Tmax is 2 h. Also, in series [1] (setting [9]), the concentration peaked (Cmax) at 78.2 ± 10.7 ng/g, the half-life was 9.7 h and the Tmax came out at 2 h.

For `COc1cc2c(cc1O)-c1cc3ccc(OC)c(OC)c3c[n+]1CC2` [M5, columbamine], the “increase in AUC on co-administration” value in series [1] worked out at 35%. Besides, the “exposure (AUC) of metabolite” value in series [1] (TB-2+BBR treatments) and in series [1] (setting [7]) was 11% each time. Besides, the “AUC ± SE” value in series [1] (setting [5]) is 362.8 ± 18.7 h ∗ ng/g; in series [1] (setting [6]) it was 489.2 ± 59.2^∗ h ∗ ng/g. For the same compound, the Cmax in series [1] (setting [8]) was 184 ± 38.4 ng/g; in series [1] (setting [9]) it was 89.4 ± 15.6 ng/g. For the same compound, the values for the half-life in series [1] (setting [8]) and in series [1] (setting [9]) were 6 h and 9.5 h, respectively. For the same compound, the Tmax in series [1] (setting [8]) and in series [1] (setting [9]) was 2 h each time.

For the compound `CN(C)C(=N)N=C(N)N` [metformin], in the series with GK rats [2], the “decrease in the AUC of blood glucose in OGTT vs vehicle” value is 11.3% and the “decrease of blood glucose levels in OGTT at 30 min vs vehicle” value is given as 30%. Further, in series [3], the “effect on organ coefficients (liver and kidney) vs vehicle” value was “no effect”. In the series on GK rats [4], the “FBG levels compared with the vehicle group (in words)” value is recorded as “significantly decreased” and the “NFBG levels compared with the vehicle group (in words)” value was “did not significantly decrease”.

Regarding `Cc1ncc2n1-c1ccc(Cl)cc1C(c1ccccc1F)=NC2` [midazolam], in the series with primary rat hepatocytes (midazolam 20 μM, TB-2 1 μM), the “metabolism after incubation (in words)” value is “significantly metabolized”.

For the origin of these results see publication PMC6353801, “Enhanced Anti-diabetic Effect of Berberine Combined With Timosaponin B2 in Goto-Kakizaki Rats, Associated With Increased Variety and Exposure of Effective Substances Through Intestinal Absorption” (Frontiers in Pharmacology, 2019).
